Results: article PMC8778022, “Synthesis and Biological Activity of 3-(Heteroaryl)quinolin-2(1H)-ones Bis-Heterocycles as Potential Inhibitors of the Protein Folding Machinery Hsp90” (Molecules, 2022)

What was measured:
[1] = MTS cell viability assay, MRC-5 cells, 72 h; type: cell-based, human; details: human, MRC-5 fetal lung fibroblast cells, % of viable cells compared to untreated cells 100%
Protocol: (§1) Upon completion of their syntheses, the in vitro activity of quinolone derivatives 3a–f, 4a–h, and 5a,b was evaluated by their growth-inhibitory potency in three cancer cell lines. At first, the viability of the synthesized compounds was examined with the MDA-MB-231 […] breast cancer cell line at concentrations of 10 µM, 15 µM, and 25 µM. Prostate cancer PC-3 cells and human fetal lung fibroblast MRC-5 cell lines were also subjected to this series of compounds at a unique concentration of 15 µM.
(§2) MDA-MB-231 cells were grown in L15 supplemented with 15% serum, 2 mM glutamine, and 22 mM sodium bicarbonate in the presence of Penicillin/Streptomycin antibiotic mixture. PC-3 cells were cultured in RPMI 1640 supplemented with 10% serum and 2 mM glutamine in the presence of Penicillin/Streptomycin antibiotic mixture. MRC-5 cells were cultured in EMEM supplemented with 10% serum and 2 mM glutamine in the presence of Penicillin/Streptomycin antibiotic mixture (Reagents were purchased from Sigma Aldrich, Saint-Quentin-Fallavier, France).
(§3) Cells were treated for 72 h with 10, 15, and 25 µM of the selected substances. Control cells were treated with the equivalent in DMSO.
(§4) Cell survival was assessed using the CellTiter Aqueous One Proliferation assay (Promega, Charbonnières-les-Bains, France) whereby 2500 or 5000 cells per well were seeded in 96-well plates in 100 µL. At the end of the treatment, 20 µL of reagent was added, and absorbance readings were taken at 492 nm on a 96-well plate reader after 3 h of contact (on average).

MDA-MB-231 cells = experiment: MTS cell viability assay, MDA-MB-231 cells, 72 h; type: cell-based, human; details: Homo sapiens, MDA-MB-231, 72 h, 25 µM, % of viable cells compared to untreated cells 100%
Protocol: as §1, §2, §3, §4

colon carcinoma cells = test system: colon carcinoma cells; parameters: method as in PMID 34952432; details: cited from earlier work
[2] = test system: Hsp90 client proteins (HER2, Raf-1 and cdk-4); details: earlier studies on mode of action; cited from earlier work
MCF7 = details: Figure 1; cited from earlier work
PC3 = details: earlier studies on mode of action; cited from earlier work
[3] = test system: MCF-7 breast cancer cell line; details: earlier studies on mode of action; cited from earlier work
PC-3 cells = experiment: MTS cell viability / growth inhibition assay, PC-3 cells, 72 h; type: cell-based, human; details: Homo sapiens, PC-3; concentration needed to reduce cell growth by 50%, 72 h treatment; estimated; read-out: GI50 anti-proliferative effect PC-3
Protocol: as §1
Then, the growth inhibitory activities against PC-3 prostate cancer cell line were measured for the selected 3-heteroaryl-quinolin-2(1H)-one derivatives 3a–e.
as §2, §3, §4

Cn1c(=O)c(-c2nc3c(-c4ccc(Cl)cc4)ncnc3n2Cc2ccccc2)cc2ccccc21 [4g, 3-[9-benzyl-6-(4-chlorophenyl)-9H-purin-8-yl]-1-methylquinolin-2(1H)-one]
viability at 72 h, 15 µM [1]: 71 to 79% | viability at 25 µM (MDA-MB-231 cells): ~30% | melting point: 202 to 203 °C

Cn1c(=O)c(NC(=O)c2ccc(OCCCCCCCCCC[P+](c3ccccc3)(c3ccccc3)c3ccccc3)cc2)cc2cc(Br)ccc21.[Br-] [6BrCaQ-C10-TPP]
mitochondrial membrane disruption (colon carcinoma cells): significant mitochondrial membrane disruption

COc1ccc(C(=O)Nc2cc3cc(Br)ccc3n(C)c2=O)cc1 [6BrCaQ]
Hsp90 client proteins (HER2, Raf-1 and cdk-4) [2]: downregulation | IC50 (MCF7): 7 µM | apoptosis level (PC3): high apoptosis level | apoptosis level [3]: high apoptosis level | GI50 (PC-3 cells): 10 µM
